Values quoted from earlier work in paper PMC9289467, “A Novel Multifunctional 5,6-Dimethoxy-Indanone-Chalcone-Carbamate Hybrids Alleviates Cognitive Decline in Alzheimer’s Disease by Dual Inhibition of Acetylcholinesterase and Inflammation” (Frontiers in Aging Neuroscience, 2022).

How the values were obtained:
[1] = tested on: cerebrospinal fluid (CSF) Aβ; conditions: chronic treatment, patients with AD; ref Nitsch et al., 2000; cited from earlier work
[2] = tested on: AChE-induced Aβ fibrillization; conditions: PAS inhibitors; ref Inestrosa et al., 1996; cited from earlier work
APP processing = conditions: rat brains; ref Farber et al., 1995; cited from earlier work

Compound | cerebrospinal fluid (CSF) Aβ levels [1] | effect of AChE on Aβ fibril aggregation process [2] | APP processing (APP processing)
CC1OC2(CS1)CN1CCC2CC1 (centres unmarked) [AF102B] | markedly lowered |  | 
CC[N+](C)(CC)CCC[n+]1c(-c2ccccc2)c2cc(N)ccc2c2ccc(N)cc21 [Propidium] |  | capable of preventing | 
CNC(=O)Oc1ccc2c(c1)[C@]1(C)CCN(C)[C@@H]1N2C [physostigmine] | did not show a significant effect |  | did not change APP processing
fasciculin |  | capable of preventing | 
